This note sets out measurements from patent US12157741B2, “Macrocyclic inhibitors of DYRK1A” (DANA-FARBER CANCER INSTITUTE, INC., priority 2018, dated 2024).

Like-named read-outs stand apart in the source and are kept apart here.

In assay [1] the target is various enzymes (Homo sapiens, UniProt P00533, DELINS747-751S). It is filed as binding. On the set-up: other: EGFR(L747-T751del, Sins); 1 uM; other: compound 1 uM. Particulars: compound 1 uM. As for the experimental part: (§1) Ambit profiling was conducted in accordance with the manufacturer's instructions.
Assay [2] has as its target various enzymes (Homo sapiens, UniProt Q13627). The class given is binding. As to conditions: compound 1 uM. As for the experimental part: as §1
In assay [3] the target is various enzymes (Homo sapiens, UniProt O14578). Particulars: CIT; 1 uM.
Protocol: (§2) Ambit profiling from Eurofins (formerly Discoverx) was conducted in accordance with the manufacturer's instructions.
Assay [4] has as its target T1, various enzymes (Homo sapiens, UniProt O75385).
T1 sequence (O75385 1-1050): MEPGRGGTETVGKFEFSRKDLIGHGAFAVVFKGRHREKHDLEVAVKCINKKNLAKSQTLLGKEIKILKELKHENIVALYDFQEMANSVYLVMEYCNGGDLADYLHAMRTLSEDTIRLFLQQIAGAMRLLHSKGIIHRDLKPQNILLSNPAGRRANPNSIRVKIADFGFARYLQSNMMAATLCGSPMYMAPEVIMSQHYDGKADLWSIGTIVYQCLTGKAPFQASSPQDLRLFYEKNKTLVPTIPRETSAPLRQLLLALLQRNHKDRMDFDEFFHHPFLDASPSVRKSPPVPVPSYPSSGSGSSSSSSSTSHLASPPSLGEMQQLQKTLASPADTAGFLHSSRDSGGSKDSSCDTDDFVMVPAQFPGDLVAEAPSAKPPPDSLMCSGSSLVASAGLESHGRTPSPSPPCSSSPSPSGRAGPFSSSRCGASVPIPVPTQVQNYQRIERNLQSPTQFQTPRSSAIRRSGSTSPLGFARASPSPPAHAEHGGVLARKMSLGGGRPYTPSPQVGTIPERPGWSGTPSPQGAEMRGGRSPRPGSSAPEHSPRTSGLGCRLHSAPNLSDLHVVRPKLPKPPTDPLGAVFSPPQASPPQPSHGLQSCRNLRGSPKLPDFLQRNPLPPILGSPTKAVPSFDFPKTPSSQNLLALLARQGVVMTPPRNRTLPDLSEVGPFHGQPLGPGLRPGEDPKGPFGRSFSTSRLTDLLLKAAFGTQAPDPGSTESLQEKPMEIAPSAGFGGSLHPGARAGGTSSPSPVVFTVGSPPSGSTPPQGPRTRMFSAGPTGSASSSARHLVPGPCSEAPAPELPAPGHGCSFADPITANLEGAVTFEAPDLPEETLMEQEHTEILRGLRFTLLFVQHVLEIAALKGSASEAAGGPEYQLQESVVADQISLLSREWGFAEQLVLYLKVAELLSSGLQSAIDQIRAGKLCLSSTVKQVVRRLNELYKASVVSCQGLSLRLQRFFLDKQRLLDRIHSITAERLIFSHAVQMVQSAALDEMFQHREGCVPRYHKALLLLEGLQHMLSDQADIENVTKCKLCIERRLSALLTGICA
As to conditions: ULK1; 1 uM.
Protocol: as §2

Assay [5] addresses various enzymes (Homo sapiens, UniProt P00533, DEL747-752/P753S).
Protocol: as §2
Assay [6] addresses various enzymes (Homo sapiens, UniProt P23458). Particulars: 1 uM.
Protocol: as §2
Assay [7] deals with various enzymes (Homo sapiens, UniProt P54756). Particulars: EPHA5; 1 uM.
Sequence of various enzymes (Homo sapiens, UniProt P54756) (P54756 25-1037): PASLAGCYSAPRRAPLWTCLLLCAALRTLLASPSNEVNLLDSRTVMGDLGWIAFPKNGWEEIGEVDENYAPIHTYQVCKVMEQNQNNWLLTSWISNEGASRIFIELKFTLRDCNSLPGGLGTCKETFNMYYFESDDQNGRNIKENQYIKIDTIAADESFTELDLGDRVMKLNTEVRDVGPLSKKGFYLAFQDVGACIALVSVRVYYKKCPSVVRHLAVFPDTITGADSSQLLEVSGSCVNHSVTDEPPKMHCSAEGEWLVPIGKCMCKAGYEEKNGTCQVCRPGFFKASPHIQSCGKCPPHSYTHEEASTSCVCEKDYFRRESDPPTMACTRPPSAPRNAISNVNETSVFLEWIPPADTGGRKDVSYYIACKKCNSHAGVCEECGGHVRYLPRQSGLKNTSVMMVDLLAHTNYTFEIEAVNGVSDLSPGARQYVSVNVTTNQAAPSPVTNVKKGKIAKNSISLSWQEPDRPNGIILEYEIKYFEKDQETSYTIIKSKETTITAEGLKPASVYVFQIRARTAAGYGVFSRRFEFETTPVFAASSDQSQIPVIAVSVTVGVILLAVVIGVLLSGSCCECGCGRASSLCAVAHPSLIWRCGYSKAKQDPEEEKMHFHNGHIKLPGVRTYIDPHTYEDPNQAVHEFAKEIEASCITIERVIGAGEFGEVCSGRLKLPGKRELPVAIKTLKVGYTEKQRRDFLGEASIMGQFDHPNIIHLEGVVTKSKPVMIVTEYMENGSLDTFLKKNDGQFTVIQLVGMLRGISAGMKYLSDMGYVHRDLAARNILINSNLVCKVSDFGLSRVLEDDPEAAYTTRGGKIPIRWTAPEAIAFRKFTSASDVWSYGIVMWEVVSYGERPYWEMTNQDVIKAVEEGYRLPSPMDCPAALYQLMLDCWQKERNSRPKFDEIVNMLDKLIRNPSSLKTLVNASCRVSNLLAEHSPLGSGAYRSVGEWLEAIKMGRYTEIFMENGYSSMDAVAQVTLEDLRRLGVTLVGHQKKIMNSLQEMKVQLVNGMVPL
Protocol: as §2
The target in assay [8] is various enzymes (Homo sapiens, UniProt Q06187). As to conditions: BTK; 1 uM.
Sequence of various enzymes (Homo sapiens, UniProt Q06187) (Q06187 whole entry): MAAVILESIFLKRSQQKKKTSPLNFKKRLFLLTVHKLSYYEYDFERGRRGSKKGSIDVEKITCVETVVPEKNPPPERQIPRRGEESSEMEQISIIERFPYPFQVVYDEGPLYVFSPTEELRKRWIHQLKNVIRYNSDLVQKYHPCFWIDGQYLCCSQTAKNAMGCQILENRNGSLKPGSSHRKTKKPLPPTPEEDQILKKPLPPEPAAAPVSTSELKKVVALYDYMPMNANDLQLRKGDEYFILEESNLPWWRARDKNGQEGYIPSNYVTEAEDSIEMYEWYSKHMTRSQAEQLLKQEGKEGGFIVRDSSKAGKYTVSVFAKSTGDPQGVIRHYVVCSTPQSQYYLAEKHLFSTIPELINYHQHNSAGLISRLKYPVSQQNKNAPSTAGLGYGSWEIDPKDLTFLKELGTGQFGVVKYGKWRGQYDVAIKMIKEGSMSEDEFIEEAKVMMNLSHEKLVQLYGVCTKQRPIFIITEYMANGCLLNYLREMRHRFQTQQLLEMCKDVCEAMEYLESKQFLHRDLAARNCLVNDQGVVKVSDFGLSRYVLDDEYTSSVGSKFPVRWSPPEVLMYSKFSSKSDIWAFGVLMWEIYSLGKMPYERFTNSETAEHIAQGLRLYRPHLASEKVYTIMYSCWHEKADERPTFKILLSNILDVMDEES
Protocol: as §2
The target in assay [9] is T2, various enzymes (Homo sapiens, UniProt Q12852).
T2 sequence (Q12852 1-859): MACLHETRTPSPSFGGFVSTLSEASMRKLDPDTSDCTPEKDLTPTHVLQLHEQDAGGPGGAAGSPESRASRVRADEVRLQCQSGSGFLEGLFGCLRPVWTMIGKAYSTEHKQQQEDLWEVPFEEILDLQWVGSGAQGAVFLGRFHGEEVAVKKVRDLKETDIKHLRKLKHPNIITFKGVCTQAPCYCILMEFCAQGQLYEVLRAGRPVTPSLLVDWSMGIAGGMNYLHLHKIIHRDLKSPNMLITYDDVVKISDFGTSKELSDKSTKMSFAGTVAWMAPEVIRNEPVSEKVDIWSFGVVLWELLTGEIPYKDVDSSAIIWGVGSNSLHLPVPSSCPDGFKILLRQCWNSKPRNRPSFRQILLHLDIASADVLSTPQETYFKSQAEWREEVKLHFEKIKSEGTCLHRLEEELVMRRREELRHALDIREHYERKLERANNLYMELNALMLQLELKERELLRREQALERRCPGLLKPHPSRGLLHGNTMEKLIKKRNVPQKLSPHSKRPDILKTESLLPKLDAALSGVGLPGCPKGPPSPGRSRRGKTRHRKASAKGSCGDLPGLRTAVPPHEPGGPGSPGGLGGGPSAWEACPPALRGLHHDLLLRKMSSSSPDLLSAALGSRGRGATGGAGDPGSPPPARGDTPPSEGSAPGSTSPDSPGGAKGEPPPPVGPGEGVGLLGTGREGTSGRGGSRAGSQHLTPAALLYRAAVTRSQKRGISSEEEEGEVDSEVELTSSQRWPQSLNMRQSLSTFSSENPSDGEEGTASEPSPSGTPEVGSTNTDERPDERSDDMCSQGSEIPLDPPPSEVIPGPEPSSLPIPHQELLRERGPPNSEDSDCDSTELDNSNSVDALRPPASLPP
Particulars: DLK; 1 uM.
Protocol: as §2

The target in assay [10] is various enzymes (Homo sapiens, UniProt Q16584). Particulars: MLK3; 1 uM.
Sequence of various enzymes (Homo sapiens, UniProt Q16584) (Q16584 whole entry): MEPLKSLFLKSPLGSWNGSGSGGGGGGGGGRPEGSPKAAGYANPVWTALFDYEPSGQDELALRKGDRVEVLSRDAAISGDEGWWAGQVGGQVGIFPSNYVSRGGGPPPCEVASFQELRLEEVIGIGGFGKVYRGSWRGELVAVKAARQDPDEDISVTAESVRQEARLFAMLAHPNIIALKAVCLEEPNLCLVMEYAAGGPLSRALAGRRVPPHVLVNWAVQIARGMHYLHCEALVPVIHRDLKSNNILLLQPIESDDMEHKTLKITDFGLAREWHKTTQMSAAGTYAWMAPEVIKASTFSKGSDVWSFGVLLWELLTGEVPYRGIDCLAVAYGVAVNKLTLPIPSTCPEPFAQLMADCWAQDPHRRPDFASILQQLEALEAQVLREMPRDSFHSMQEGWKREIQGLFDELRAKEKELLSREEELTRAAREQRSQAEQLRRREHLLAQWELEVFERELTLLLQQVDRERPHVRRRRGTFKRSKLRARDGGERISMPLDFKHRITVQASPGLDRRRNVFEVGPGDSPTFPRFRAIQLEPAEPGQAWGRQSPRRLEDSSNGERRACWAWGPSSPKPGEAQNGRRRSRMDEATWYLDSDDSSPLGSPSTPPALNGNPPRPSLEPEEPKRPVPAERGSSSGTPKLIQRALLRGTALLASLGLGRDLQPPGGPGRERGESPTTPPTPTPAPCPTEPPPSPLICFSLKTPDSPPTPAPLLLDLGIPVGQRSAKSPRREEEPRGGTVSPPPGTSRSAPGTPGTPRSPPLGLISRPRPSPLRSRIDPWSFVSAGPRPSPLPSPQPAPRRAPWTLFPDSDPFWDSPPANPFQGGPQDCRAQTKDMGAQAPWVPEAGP
Protocol: as §2
The target of assay [11] is various enzymes (Homo sapiens, UniProt O00141). The experiment in a line: Enzyme IC50 of compound 48 (Table 3). The class given is biochemical. As to conditions: SGK.
For assay [12], the target named is T3, various enzymes (Homo sapiens, UniProt P36888, D835V, form not given).
T3 construct: Enzyme IC50; other: FLT3(ITD, D835V)
The experiment in a line: Enzyme IC50 of compound 48 (Table 3). The class given is biochemical. Particulars: read-out: Enzyme IC50; FLT3(ITD, D835V).

Assay [13] concerns the target various enzymes (Homo sapiens, UniProt Q9UKE5). The experiment in a line: Enzyme IC50 of compound 48 (Table 3). It is filed as biochemical. On the set-up: Enzyme IC50; other: TNIK. As to conditions: TNIK.
In assay [14] the target is various enzymes (Homo sapiens, UniProt Q6P2M8). The experiment in a line: Enzyme IC50 of compound 48 (Table 3). The class given is biochemical. On the set-up: Enzyme IC50; other: CAMK1B. As to conditions: CAMK1B.

Sequence of various enzymes (Homo sapiens, UniProt P23458) (P23458 whole entry): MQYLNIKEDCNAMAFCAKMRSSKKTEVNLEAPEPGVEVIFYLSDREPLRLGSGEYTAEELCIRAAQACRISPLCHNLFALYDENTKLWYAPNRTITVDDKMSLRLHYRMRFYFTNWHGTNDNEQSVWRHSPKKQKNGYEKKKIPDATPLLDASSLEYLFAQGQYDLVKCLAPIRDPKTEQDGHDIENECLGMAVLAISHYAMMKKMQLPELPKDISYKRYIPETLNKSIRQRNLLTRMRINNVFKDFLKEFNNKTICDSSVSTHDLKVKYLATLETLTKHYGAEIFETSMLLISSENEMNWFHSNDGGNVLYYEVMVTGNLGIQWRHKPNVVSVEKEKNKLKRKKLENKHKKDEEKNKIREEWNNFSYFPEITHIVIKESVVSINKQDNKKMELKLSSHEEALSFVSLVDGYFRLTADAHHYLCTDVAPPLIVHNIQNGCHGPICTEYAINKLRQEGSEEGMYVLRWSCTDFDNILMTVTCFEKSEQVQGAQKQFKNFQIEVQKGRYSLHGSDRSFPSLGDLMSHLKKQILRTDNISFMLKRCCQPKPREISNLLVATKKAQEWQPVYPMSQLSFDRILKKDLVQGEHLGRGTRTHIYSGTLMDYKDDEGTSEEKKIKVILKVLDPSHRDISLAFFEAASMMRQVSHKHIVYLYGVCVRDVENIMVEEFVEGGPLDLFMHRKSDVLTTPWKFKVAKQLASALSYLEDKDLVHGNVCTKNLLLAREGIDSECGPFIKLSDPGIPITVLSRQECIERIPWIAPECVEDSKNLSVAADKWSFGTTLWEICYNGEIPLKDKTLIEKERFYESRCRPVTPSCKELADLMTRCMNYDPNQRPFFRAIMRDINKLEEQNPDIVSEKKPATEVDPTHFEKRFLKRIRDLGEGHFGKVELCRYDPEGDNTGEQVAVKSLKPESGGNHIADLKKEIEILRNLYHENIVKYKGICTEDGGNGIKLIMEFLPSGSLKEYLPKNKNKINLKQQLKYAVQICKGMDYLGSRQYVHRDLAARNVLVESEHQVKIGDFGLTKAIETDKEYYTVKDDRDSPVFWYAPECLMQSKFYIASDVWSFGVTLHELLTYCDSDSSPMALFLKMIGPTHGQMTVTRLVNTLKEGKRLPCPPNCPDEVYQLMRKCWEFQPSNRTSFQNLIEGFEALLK
Sequence of various enzymes (Homo sapiens, UniProt Q9UKE5) (Q9UKE5 whole entry): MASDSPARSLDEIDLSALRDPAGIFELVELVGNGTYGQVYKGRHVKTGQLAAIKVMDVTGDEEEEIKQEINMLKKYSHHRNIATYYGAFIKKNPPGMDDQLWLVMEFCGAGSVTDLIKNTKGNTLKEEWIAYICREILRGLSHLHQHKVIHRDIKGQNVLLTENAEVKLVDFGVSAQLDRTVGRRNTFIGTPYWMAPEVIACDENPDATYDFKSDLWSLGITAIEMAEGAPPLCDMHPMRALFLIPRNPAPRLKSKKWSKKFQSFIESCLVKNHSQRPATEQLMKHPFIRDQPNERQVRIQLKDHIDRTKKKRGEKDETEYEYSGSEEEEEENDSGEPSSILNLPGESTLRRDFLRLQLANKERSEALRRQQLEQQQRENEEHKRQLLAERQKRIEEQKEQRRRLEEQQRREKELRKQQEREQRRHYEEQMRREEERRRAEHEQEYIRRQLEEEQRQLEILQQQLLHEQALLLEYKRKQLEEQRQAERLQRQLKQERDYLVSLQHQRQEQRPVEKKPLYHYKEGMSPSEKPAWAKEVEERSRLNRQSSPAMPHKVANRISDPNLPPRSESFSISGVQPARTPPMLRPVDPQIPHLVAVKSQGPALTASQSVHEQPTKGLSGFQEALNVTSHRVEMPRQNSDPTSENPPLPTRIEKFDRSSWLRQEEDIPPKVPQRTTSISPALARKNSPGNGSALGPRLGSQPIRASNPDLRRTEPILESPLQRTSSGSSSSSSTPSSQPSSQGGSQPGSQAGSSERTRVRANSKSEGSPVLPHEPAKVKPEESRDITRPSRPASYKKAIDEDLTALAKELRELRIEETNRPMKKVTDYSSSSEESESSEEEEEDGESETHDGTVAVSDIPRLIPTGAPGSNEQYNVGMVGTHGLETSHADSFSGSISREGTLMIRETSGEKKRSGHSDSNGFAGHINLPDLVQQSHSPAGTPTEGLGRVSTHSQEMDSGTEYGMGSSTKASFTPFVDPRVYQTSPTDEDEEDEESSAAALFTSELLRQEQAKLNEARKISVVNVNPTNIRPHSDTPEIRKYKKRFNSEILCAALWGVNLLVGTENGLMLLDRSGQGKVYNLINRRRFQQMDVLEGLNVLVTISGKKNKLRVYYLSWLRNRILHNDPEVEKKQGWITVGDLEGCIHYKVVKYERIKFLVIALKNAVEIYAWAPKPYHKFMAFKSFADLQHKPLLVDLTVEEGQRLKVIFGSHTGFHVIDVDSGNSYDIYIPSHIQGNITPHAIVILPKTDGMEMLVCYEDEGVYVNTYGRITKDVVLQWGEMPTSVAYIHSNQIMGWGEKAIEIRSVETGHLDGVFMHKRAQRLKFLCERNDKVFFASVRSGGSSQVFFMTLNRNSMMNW

As to `COc1c2c(nn1C)CN(C(C)C)C(=O)CCCn1cc(c(C(F)(F)F)n1)-c1c[nH]c3ncc-2cc13` [Compound 50, (Z)-5-isopropyl-35-methoxy-31-methyl-13-(trifluoromethyl)-11H,21H,31H-5-aza-2(3,5)-pyrrolo[2,3-b]pyridina-1(4,1),3(4,3)-dipyrazolacyclononaphan-6-one], the “Ambit profiling: EGFR(L747-T751del, Sins)” value in [1] turned out to be 22.

Turning to `CC(C)N1Cc2nn(C)cc2-c2cnc3[nH]cc(c3c2)-c2cn(nc2C(F)(F)F)CCCC1=O` [Compound 45, (Z)-5-isopropyl-31-methyl-13-(trifluoromethyl)-11H,21H,31H-5-aza-2(3,5)-pyrrolo[2,3-b]pyridina-1(4,1),3(4,3)-dipyrazolacyclononaphan-6-one], in assay [2], the “Ambit profiling: DYRK1A” value was 0.3. In addition, in [1], the “Ambit profiling: EGFR(L747-T751del, Sins)” value is recorded as 31.

As to `CN1Cc2nn(C)cc2-c2cnc3[nH]cc(c3c2)-c2cnn(c2)CCCC1=O` [Compound 41, (Z)-31,5-dimethyl-11H,21H,31H-5-aza-2(3,5)-pyrrolo[2,3-b]pyridina-1(4,1),3(4,3)-dipyrazolacyclononaphan-6-one], the Ambit profiling in assay [3] is 99; in [4], 22; in assay [5] (EGFR(L747-S752del, P753S), 1 uM), 100; in assay [6] (JAK1(JH1domain-catalytic)), 18; in [6] (JAK1(JH2domain-pseudokinase)), 9.1; in assay [7], 58. In addition, the Ambit profiling in assay [8] is reported as 61; in assay [9], 23; in assay [10], 69.

What is called IC50 is the concentration at which inhibition is half-maximal. `CN1Cc2nn(C)c(C#N)c2-c2cnc3[nH]cc(c3c2)-c2cn(nc2C(F)(F)F)CCCC1=O` [Compound 48, (Z)-31,5-dimethyl-6-oxo-13-(trifluoromethyl)-11H,21H,31H-5-aza-2(3,5)-pyrrolo[2,3-b]pyridina-1(4,1),3(4,3)-dipyrazolacyclononaphane-35-carbonitrile]: the IC50 turned out to be 0.212 µM in [11], 0.354 µM in assay [12], 0.087 µM in assay [13] and 0.83 µM in [14]. For the same compound, the Ambit profiling in [3] is 74; in [4], 100; in assay [5], 74; in [6] (JAK1(JH1domain-catalytic)), 100; in assay [6] (JAK1(JH2domain-pseudokinase)) it was 100; in assay [7], 97. In addition, the Ambit profiling was 97 in assay [8], 100 in [9] and 80 in assay [10].
